Source: US11834454B2, “Alkynylphenylbenzamide compounds and applications thereof” (SHENZHEN NEWDEL BIOTECH CO., LTD., priority 2021, dated 2023)

Columns and labels:
BaF3-ETV6-NTRK3 = molecular target: T1, BaF3-ETV6-NTRK3 (Homo sapiens, UniProt Q16288); test: Cell proliferation inhibition, Ba/F3-TRKs stable strain (CCK-8); type: cell-based, mouse; conditions: 72 hours, read-out: cell viability IC50 ETV6-NTRK3
T1 construct: fused on or other part: P41212 (Transcription factor ETV6)
Excerpt: (§1) The BaF3 cells (mouse pre-B cells) used in this experiment were purchased from the Japanese Cell Bank. All of the monoclonal stable strains, BaF3-CD74-NTRK1, BaF3-ETV6-NTRK2 and BaF3-ETV6-NTRK3 were constructed by our laboratory, and were identified by experiments such as positive control, protein expression and gene sequencing.
(§2) The brief steps of stable strain construction were as follows: constructed pCDNA3.1(+) plasmid vector carrying genes such as CD74-NTRK1, ETV6-NTRK2, ETV6-NTRK3; the plasmid was electroporated into Ba/F3 cells using Amaxa® Cell Line Nucleofector® Kit V; 48 hours after electroporation, geneticin (G418) with a final concentration of 1000 μg/mL was added to screen for two weeks, and the interleukin 3 (IL3) was removed to continue screening to obtain polyclonal stable strains; and then single clones were selected by limiting dilution method; the stable strains were then identified by the positive drugs, Western Blot (WB), and gene sequencing; the correct monoclonal through identification can be used to study the cell proliferation inhibitory activity of the inhibitors.
(§3) Cell proliferation inhibitory activity study: The cells in logarithmic growth phase were seeded into 96-well plates at 8000-12000 cells/well, and the inhibitors at different concentrations of (0-10 μM) were added the next day, and the culture was continued for 72 hours; then 10 μL of Cell Counting Kit-8 Cell Counting Reagent (CCK-8 Reagent) was added to each well, and continued to incubate for 1-3 hours; then its absorbance at 450 nm and 650 nm were measured with a super microplate reader. The median inhibitory concentration (IC50) was calculated using medical graphing software (GraphPad Prism 8.0.0).

BaF3-CD74-NTRK1 = molecular target: T2, BaF3-CD74-NTRK1 (Homo sapiens, UniProt P04629); test: as above; type: cell-based, mouse; conditions: 72 hours, read-out: cell viability IC50 CD74-NTRK1
T2 construct: fused on or other part: P04233 (HLA class II histocompatibility antigen gamma chain)
Excerpt: as §1, §2, §3

BaF3-ETV6-NTRK2 = molecular target: T3, BaF3-ETV6-NTRK2 (Homo sapiens, UniProt Q16620); test: as above; type: cell-based, mouse; conditions: 72 hours, read-out: cell viability IC50 ETV6-NTRK2
T3 construct: fused on or other part: P41212 (Transcription factor ETV6)
Excerpt: as §1, §2, §3

TRKC = molecular target: T4, TRKC (Homo sapiens, UniProt Q16288); test: Z'-LYTE kinase activity detection, TRKC; type: biochemical
T4 construct: purchased American Life Technologies PV3617

[1] = Effect on the body weight of mice in the allograft study; type: in vivo, CB17-SCID female mice; conditions: four doses 6.25, 12.5, 25, 50 mg/kg oral once a day
Experimental: (§4) After washed twice with normal saline, the cells were adjusted to a density of 1×10^7 cells/mL and placed on ice, and injected subcutaneously into the right axilla of CB17-SCID female mice (purchased from Viton Lever, Beijing, 6-8 weeks old) as soon as possible, with 200 μL each injection.
(§5) The control group was given the same volume of mixed solvent orally. Body weight and tumor volume were recorded every two days.

PDGFRA = PDGFRA (Homo sapiens, UniProt P16234); test: Kinase selectivity, Z'-LYTE
Experimental: (§6) Enzymatic reaction: In a 384-well plate, added 5 μL of enzyme-substrate system [50 mM 4-hydroxyethylpiperazineethanesulfonic acid (HEPES) pH 7.5, 0.01% BRIJ-35, 10 mM of magnesium chloride (MgCl2), 1 mM of ethylene glycol bis(2-aminoethyl ether)tetraacetic acid (EGTA), 2 μM of Tyr 01 peptide substrate], transferred 5 nL of compound (concentration gradient) using an Echo520 Ultra-Micro Liquid Pipetting System. […] Shaked and mixed, then centrifuged, and reacted at 30° C. in the dark for 1.5 hours.

SRC = SRC (Homo sapiens, UniProt P12931); test: Kinase selectivity, Z'-LYTE
Experimental: as §6

RET = RET (Homo sapiens, UniProt P07949); test: Kinase selectivity, Z'-LYTE
Experimental: as §6

[2] = tested on: Ba/F3-CD74-TRKAG^667C allograft mouse model; test: In vivo antitumor efficacy, allograft mouse model; design: species or system CB17-SCID female mice; conditions: for TGI: after treatment for 12 days
Experimental: as §4, §5

PDGFRB = PDGFRB (Homo sapiens, UniProt P09619); test: Kinase selectivity, Z'-LYTE
Experimental: as §6

VEGFR2 = VEGFR2 (Homo sapiens, UniProt P35968); test: Kinase selectivity, Z'-LYTE
Experimental: as §6

Bcr-Abl = Bcr-Abl (Homo sapiens, UniProt P00519); test: Kinase selectivity, Z'-LYTE
Experimental: as §6

Kit = Kit (Homo sapiens, UniProt P10721); test: Kinase selectivity, Z'-LYTE
Experimental: as §6

[3] = Pharmacokinetic and oral bioavailability tests in SD rats; type: in vivo
Experimental: Pharmacokinetic and oral bioavailability tests were performed in SD rats. According to the drug's solubility, the drug was administered orally and intravenously as a single dose. Animal blood samples were collected at different time points (0, 0.5, 1, 2, 4, 6, 8, 24 hours), and added with heparin for anticoagulation, then centrifugated to obtain the supernatant. Blood samples were analyzed by HPLC-MS, and DAS2.1 was used for data analysis to detect half-life (T½), maximum blood concentration (Cmax), peak time (Tmax), area under the curve (AUC), and bioavailability (BA) and other pharmacokinetic data.

[4] = Sprague-Dawley (SD), rat, plasma, intravenous injection, 2.0 mg/kg
[5] = Sprague-Dawley (SD), rat, plasma, oral, 10.0 mg/kg

T3 sequence (Q16620 538-822 limits assumed): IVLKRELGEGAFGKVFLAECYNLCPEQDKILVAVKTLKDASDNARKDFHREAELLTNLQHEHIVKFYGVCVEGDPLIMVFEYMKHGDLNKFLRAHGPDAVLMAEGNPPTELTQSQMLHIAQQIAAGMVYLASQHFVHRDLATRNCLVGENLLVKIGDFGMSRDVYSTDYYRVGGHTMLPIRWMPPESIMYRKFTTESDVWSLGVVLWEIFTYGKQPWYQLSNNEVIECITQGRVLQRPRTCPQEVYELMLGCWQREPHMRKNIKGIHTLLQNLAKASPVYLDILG
T2 sequence (P04629 510-796 limits assumed): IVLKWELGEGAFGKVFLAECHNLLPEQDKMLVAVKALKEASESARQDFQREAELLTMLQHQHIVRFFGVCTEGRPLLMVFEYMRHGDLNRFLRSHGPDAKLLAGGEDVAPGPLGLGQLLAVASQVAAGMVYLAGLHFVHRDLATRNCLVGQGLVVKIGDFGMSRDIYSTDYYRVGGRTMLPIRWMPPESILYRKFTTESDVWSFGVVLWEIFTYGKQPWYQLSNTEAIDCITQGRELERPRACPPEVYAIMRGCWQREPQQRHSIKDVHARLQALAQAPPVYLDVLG
T4 sequence (Q16288 32-839): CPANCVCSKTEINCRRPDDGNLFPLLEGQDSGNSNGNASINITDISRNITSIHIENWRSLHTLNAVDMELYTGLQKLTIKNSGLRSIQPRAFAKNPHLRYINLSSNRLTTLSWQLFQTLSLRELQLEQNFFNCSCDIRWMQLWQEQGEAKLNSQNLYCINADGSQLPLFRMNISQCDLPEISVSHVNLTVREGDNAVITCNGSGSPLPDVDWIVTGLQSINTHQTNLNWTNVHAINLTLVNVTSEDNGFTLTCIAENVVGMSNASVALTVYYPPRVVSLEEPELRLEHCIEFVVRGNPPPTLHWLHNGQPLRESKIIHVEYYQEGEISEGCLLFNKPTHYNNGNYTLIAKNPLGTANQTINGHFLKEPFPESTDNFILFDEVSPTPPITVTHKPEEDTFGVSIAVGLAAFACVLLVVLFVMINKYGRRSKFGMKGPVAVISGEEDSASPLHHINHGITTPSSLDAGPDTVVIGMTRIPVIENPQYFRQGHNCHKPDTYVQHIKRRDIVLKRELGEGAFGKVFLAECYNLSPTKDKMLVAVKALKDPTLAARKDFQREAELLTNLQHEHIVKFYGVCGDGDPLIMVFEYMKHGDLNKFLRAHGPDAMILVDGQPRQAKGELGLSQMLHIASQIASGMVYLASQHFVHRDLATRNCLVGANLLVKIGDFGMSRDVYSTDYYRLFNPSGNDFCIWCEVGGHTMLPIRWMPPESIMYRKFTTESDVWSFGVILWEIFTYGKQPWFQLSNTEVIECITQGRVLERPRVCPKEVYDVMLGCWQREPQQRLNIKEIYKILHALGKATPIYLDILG
T1 sequence (Q16288 whole entry, the tested form may be a part): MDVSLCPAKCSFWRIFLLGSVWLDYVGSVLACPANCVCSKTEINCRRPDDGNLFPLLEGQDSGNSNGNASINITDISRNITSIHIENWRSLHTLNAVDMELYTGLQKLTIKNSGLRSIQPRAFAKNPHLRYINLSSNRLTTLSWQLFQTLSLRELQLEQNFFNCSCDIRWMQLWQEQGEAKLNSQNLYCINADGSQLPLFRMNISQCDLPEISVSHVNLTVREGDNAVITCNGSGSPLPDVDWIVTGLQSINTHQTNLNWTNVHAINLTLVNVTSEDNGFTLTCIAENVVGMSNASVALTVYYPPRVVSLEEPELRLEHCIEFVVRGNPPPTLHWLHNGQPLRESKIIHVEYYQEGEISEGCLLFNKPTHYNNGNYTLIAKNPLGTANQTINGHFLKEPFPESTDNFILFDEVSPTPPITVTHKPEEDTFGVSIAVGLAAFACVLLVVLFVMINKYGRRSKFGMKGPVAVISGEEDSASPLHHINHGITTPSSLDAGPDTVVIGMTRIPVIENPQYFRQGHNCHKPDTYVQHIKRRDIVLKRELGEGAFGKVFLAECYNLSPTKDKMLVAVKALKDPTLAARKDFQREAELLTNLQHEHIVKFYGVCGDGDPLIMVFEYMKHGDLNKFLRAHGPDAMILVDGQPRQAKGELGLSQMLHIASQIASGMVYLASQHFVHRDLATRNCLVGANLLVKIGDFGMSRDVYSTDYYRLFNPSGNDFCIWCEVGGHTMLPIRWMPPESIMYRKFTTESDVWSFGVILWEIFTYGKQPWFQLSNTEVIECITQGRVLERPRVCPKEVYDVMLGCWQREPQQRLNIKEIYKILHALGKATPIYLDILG
Chain of PDGFRB (P09619 33-1106, species assumed): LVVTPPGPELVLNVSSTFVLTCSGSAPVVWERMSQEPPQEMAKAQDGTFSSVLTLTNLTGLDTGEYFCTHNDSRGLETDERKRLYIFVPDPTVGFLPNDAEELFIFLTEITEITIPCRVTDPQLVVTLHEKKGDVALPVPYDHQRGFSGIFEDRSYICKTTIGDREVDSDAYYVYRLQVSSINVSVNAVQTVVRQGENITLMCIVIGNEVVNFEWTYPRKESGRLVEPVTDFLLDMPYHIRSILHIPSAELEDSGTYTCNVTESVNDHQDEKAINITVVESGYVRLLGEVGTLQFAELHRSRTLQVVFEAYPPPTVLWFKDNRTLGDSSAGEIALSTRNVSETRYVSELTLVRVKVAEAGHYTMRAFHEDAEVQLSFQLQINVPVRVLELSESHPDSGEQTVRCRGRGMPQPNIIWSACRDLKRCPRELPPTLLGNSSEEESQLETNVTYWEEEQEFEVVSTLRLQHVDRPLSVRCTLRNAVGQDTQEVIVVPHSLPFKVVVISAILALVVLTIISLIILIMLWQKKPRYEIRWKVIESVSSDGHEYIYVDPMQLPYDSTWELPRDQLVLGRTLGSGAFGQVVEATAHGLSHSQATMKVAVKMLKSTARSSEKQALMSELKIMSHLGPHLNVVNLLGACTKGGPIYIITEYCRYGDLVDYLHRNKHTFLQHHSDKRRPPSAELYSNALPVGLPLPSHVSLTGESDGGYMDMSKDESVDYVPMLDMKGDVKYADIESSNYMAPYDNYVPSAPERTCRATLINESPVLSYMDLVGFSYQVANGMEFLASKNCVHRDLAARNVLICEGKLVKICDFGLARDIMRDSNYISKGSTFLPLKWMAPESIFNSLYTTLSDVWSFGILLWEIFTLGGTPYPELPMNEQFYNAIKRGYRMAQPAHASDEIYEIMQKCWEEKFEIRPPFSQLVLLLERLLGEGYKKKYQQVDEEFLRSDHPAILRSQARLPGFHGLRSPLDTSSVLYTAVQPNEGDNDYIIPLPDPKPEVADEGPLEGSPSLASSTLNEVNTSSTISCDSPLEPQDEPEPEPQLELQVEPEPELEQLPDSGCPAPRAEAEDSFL
Chain of PDGFRA (P16234 24-1089, species assumed): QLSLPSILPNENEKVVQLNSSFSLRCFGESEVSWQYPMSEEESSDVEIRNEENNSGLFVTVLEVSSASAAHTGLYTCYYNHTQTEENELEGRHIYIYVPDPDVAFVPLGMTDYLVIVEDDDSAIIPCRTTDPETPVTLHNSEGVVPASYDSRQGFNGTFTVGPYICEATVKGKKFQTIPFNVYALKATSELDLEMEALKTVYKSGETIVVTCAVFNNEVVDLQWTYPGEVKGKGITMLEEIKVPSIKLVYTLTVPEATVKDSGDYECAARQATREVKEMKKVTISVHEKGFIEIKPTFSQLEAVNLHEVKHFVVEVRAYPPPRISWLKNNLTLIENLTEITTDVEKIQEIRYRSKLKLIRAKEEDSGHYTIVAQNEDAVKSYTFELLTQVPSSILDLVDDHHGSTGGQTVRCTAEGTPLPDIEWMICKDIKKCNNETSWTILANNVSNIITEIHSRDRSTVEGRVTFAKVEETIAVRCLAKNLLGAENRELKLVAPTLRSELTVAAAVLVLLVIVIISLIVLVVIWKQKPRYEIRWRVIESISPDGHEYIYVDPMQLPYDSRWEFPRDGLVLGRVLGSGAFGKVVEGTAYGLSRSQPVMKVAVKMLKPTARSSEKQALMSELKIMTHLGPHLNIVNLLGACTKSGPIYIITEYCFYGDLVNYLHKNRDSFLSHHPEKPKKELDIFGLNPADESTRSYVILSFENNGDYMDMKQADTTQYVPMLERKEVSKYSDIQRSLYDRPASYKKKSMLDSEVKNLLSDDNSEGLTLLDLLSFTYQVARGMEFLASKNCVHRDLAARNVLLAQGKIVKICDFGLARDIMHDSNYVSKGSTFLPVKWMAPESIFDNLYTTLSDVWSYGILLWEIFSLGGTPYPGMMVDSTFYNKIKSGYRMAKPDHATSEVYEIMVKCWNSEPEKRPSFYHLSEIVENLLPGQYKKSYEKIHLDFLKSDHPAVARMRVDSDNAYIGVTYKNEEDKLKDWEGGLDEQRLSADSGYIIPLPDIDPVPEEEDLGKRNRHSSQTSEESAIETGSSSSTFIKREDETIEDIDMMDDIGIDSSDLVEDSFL
Chain of SRC (P12931 whole entry, species assumed): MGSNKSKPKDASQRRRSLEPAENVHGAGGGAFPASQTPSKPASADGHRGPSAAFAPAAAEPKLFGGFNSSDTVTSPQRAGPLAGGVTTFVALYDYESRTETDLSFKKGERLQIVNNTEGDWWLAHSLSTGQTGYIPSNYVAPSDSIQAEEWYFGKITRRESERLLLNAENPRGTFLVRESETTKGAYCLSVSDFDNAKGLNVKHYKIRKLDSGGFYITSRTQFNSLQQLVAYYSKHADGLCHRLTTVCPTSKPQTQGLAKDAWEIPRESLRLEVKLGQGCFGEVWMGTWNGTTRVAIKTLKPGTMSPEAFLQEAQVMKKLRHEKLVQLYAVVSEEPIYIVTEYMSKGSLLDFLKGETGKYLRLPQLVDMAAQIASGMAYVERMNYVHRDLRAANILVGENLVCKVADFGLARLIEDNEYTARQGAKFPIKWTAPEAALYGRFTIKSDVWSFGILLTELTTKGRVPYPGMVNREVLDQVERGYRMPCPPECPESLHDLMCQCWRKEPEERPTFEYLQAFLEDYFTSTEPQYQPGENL

For Cc1c(C#Cc2cnc3ccc(N4CCOCC4)nn23)cccc1C(=O)Nc1cc(CN2CCN(C)CC2)cc(C(F)(F)F)c1 [XS3-68, 2-METHYL-N-(3-((4-METHYLPIPERAZIN-1-YL)METHYL)-5-(TRIFLUOROMETHYL)PHENYL)-3-((6-METHYLENE) LINOIMIDAZO[1,2-B]PYRIDAZIN-3-YL)ETHYNYL)BENZAMIDE], the IC50 (BaF3-ETV6-NTRK3) was < 10 nM, the IC50 (BaF3-CD74-NTRK1) was < 10 nM and the IC50 (BaF3-ETV6-NTRK2) was 10 to 100 nM. For the same compound, the IC50 (TRKC) was < 10 nM.

For Cc1c(C#Cc2cnc3ccc(N4CCC(O)CC4)nn23)cccc1C(=O)Nc1cc(Cl)cc(C(F)(F)F)c1 [XS3-55, N-(3-CHLORO-5-(TRIFLUOROMETHYL)PHENYL)-3-((6-(4-HYDROXYPIPERIDIN-1-YL)IMIDAZO[1,2-B]PYRIDAZINE-3-YL)ETHYNYL)-2-METHYLBENZAMIDE], the “effect on mouse body weight” value [1] was “no obvious adverse effect”, the IC50 (PDGFRA) was 5890 nM and the IC50 (SRC) was 526 nM. For the same compound, the IC50 (RET) was > 10000 nM, the TGI ([2]; 6.25 mg/kg/day oral) was 50.9% and the TGI ([2]; 12.5 mg/kg/day oral) was 76.3%. The TGI ([2]; 25 mg/kg/day oral) was 89.2%, the TGI ([2]; 50 mg/kg/day oral) was 91.6% and the tumor size ([2]; after 2 days of treatment at the lowest dose of 6.25 mg/kg, oral) was “Significant reductions in tumor size”. It also gave an IC50 (BaF3-ETV6-NTRK3) of 10 to 100 nM, an IC50 (BaF3-CD74-NTRK1) of 10 to 100 nM and an IC50 (TRKC) of 10 to 100 nM. For the same compound, the IC50 (PDGFRB) was > 10000 nM, the IC50 (VEGFR2) was 833 nM and the IC50 (Bcr-Abl) was > 10000 nM. For the same compound, the IC50 (Kit) was 1670 nM, the AUC(0-inf) [3, 4] was 549 µg·h/mL and the AUC(0-t) [3, 4] was 358 µg·h/mL. It also gave a Cmax [3, 4] of 46100 ng/mL, a Tmax [3, 4] of 0.08 h and a half-life [3, 4] of 16.1 h. It also gave a clearance ([3]; Sprague-Dawley (SD), rat, plasma, intravenous injection, 2.0 mg/kg, read-out: Clearance rate (converted)) of 3.65 mL/h/kg, an AUC(0-inf) [3, 5] of 878 µg·h/mL and an AUC(0-t) [3, 5] of 561 µg·h/mL. The Cmax [3, 5] was 44100 ng/mL, the Tmax [3, 5] was 4 h and the half-life [3, 5] was 15.2 h. The BA ([3]; oral 10.0 mg/kg vs intravenous 2.0 mg/kg) was 31.32%.

For Cc1c(C#Cc2cnc3ccc(N4CCC(O)CC4)nn23)cccc1C(=O)Nc1cc(CN2CCN(C)CC2)cc(C(F)(F)F)c1 [XS3-81, 3-((6-(4-HYDROXYPIPERIDIN-1-YL)IMIDAZO[1,2-B]PYRIDAZIN-3-YL)ETHYNYL)-2-METHYL-N-(3-(((4-METHYLPIPERAZIN-1-YL)METHYL)-5-(TRIFLUOROMETHYL)PHENYL)BENZAMIDE], the IC50 (BaF3-ETV6-NTRK3) was < 10 nM, the IC50 (BaF3-CD74-NTRK1) was 10 to 100 nM and the IC50 (BaF3-ETV6-NTRK2) was < 10 nM. For the same compound, the IC50 (TRKC) was < 10 nM.

For Cc1cn(-c2cc(NC(=O)c3cccc(C#Cc4cnc5ccc(N6CCC(O)CC6)nn45)c3C)cc(C(F)(F)F)c2)cn1 [XS3-87, 3-((6-(4-HYDROXYPIPERIDIN-1-YL)IMIDAZO[1,2-B]PYRIDAZIN-3-YL)ETHYNYL)-2-METHYL-N-(3-(4-METHYL-1H-IMIDAZOL-1-YL)-5-(TRIFLUOROMETHYL)PHENYL)BENZAMIDE], the IC50 (BaF3-ETV6-NTRK3) was < 10 nM, the IC50 (BaF3-CD74-NTRK1) was < 10 nM and the IC50 (BaF3-ETV6-NTRK2) was 10 to 100 nM. For the same compound, the IC50 (TRKC) was < 10 nM.
